Columns and labels:
Format in all cases: biochemical
[1] = molecular target: T1, LRRK2(G2019S mutation, GST-LRRK2(amino acids 970-2527)) (Homo sapiens, UniProt Q5S007, G2019S); test: LRRK2 5 mM ATP LanthaScreen Assay; conditions: mean IC50 of several tests
T1 construct: GST-LRRK2(amino acids 970-2527); GST (N); purchased Life Technologies Corporation
Experimental: The data presented for the 5 mM and Km ATP LanthaScreen™ Assay represents mean IC50 values based on several test results and may have reasonable. deviations depending on the specific conditions and reagents used. Reagents for the LRRK2 5 mM and Km ATP LanthaScreen™ Assay were purchased from Life Technologies Corporation.
LRRK2 5 mM ATP LanthaScreen™ Assay • a) 400 nl of a 1:2.15 serial dilution of test compound (98 μM top assay concentration) is spotted via Labcyte Echo to certain wells in a 384 well black, untreated plate. […] Results are analysed using Assay Data Analyzer.

[2] = molecular target: T1, LRRK2(G2019S mutation, GST-LRRK2(amino acids 970-2527)); test: LRRK2 Km ATP LanthaScreen Assay; conditions: Km ATP LanthaScreen; mean IC50 of several tests; read-out: LRRK2 IC50
How it was run: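 IC50 values are means of several runs in the Km-ATP LanthaScreen format, analysed by curve fitting of the LanthaScreen read-out.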

kinases (Table B) [3] = molecular target: T2, kinases (Table B) (Homo sapiens, UniProt P28482); test: Kinase selectivity, Z'-LYTE or Adapta assay platforms (Life Technologies); conditions: MAPK1 (ERK2), Z-LYTE, read-out: percent inhibition MAPK1 (ERK2); for inhibition at 1 µM: test conc 1 μM
T2 construct: purchased Life Technologies Corporation

kinases (Table B) [4] = molecular target: T3, kinases (Table B) (Homo sapiens, UniProt Q13627); test: as above; conditions: DYRK1A, Z-LYTE, read-out: percent inhibition DYRK1A; for inhibition at 1 µM: test conc 1 μM
T3 construct: purchased Life Technologies Corporation

kinases (Table B) [5] = molecular target: T4, kinases (Table B) (Homo sapiens, UniProt Q96GD4); test: as above; conditions: AURKB (Aurora B), Z-LYTE, read-out: percent inhibition AURKB (Aurora B); for inhibition at 1 µM: test conc 1 μM
T4 construct: purchased Life Technologies Corporation

kinases (Table B) [6] = molecular target: T5, kinases (Table B) (Homo sapiens, UniProt O96017); test: as above; conditions: CHEK2 (CHK2), Z-LYTE, read-out: percent inhibition CHEK2 (CHK2); for inhibition at 1 µM: test conc 1 μM
T5 construct: purchased Life Technologies Corporation

kinases (Table B) [7] = molecular target: T6, kinases (Table B) (Homo sapiens, UniProt P15056, V600E); test: as above; conditions: BRAF V599E, Z-LYTE, read-out: percent inhibition BRAF V599E; for inhibition at 1 µM: test conc 1 μM
T6 construct: purchased Life Technologies Corporation

kinases (Table B) [8] = test: as above; conditions: for percent inhibition CDK1/cyclin B / percent inhibition CLK2 / percent inhibition JAK3: Z-LYTE; for percent inhibition IRAK1: Adapta
kinases (Table B) [9] = molecular target: T7, kinases (Table B) (Homo sapiens, UniProt P45983); test: as above; conditions: MAPK8 (JNK1), Z-LYTE, read-out: percent inhibition MAPK8 (JNK1); for inhibition at 1 µM: test conc 1 μM
T7 construct: purchased Life Technologies Corporation
T7 sequence (P45983 whole entry): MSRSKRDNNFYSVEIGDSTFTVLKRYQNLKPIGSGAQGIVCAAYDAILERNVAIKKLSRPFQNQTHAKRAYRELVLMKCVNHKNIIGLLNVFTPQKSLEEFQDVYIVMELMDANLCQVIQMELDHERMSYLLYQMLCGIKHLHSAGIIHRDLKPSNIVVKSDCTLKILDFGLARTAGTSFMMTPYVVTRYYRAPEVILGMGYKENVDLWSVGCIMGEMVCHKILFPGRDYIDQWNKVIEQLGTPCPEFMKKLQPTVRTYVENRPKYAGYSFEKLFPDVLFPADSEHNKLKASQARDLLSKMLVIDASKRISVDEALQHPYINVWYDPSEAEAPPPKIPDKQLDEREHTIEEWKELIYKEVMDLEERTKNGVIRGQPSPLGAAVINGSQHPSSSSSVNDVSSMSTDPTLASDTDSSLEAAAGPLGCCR

T4 sequence (Q96GD4 whole entry): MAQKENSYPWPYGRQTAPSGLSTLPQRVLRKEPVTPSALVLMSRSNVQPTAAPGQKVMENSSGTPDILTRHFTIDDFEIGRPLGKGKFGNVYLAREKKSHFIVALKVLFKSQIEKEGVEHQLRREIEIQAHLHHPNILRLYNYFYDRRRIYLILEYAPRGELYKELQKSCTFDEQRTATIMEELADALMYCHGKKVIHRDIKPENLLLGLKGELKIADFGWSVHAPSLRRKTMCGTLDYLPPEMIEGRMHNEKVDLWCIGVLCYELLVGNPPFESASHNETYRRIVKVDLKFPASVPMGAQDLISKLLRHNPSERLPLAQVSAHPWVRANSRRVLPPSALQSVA
T1 sequence (Q5S007 970-2527 G2019S): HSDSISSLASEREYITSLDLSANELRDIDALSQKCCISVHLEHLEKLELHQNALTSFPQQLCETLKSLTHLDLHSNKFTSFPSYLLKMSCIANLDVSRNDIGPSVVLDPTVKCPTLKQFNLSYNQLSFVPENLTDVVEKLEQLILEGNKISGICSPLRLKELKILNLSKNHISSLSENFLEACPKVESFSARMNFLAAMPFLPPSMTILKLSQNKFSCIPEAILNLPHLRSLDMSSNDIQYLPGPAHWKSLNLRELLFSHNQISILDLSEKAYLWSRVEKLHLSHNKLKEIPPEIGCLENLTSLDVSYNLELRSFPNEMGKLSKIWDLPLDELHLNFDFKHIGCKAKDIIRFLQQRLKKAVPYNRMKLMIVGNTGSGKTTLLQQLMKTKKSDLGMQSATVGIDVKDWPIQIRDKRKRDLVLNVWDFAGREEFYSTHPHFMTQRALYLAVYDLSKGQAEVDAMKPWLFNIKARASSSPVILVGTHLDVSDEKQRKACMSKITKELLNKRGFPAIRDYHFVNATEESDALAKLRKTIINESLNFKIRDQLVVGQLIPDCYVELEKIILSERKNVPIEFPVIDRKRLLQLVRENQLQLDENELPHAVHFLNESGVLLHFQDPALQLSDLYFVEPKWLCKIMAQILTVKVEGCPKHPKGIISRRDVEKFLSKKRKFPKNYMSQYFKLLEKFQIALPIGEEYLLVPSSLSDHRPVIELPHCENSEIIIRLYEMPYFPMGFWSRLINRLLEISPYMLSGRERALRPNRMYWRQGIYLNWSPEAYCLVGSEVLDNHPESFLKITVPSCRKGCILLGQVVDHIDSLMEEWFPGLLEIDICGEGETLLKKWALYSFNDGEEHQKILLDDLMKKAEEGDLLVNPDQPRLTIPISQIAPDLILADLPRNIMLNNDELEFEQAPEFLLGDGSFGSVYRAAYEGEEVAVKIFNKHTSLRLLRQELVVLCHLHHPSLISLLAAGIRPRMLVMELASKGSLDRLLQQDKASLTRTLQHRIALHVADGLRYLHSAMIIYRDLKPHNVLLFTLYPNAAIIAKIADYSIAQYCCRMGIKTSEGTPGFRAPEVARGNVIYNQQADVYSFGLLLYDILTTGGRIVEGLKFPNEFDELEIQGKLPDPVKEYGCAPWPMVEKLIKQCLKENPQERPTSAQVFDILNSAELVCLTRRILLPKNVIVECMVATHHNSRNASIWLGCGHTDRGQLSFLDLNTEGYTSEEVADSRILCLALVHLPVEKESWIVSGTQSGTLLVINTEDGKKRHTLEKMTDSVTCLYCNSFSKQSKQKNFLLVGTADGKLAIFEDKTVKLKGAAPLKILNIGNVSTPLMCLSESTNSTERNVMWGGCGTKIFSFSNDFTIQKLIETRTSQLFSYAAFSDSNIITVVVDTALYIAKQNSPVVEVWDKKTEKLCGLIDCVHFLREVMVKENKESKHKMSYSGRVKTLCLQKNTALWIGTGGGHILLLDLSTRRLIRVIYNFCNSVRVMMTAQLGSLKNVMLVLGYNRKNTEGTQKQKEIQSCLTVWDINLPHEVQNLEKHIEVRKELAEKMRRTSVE
T2 sequence (P28482 whole entry): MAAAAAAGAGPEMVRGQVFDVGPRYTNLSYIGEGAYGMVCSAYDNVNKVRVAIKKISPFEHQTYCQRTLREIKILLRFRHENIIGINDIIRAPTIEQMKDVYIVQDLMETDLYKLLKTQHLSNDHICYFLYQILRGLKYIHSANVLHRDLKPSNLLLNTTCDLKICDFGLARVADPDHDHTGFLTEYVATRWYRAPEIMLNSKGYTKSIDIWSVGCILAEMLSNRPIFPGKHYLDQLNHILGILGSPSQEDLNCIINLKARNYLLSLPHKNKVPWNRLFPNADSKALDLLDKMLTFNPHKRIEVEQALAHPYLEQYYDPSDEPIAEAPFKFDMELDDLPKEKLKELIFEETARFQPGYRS
T5 sequence (O96017 whole entry): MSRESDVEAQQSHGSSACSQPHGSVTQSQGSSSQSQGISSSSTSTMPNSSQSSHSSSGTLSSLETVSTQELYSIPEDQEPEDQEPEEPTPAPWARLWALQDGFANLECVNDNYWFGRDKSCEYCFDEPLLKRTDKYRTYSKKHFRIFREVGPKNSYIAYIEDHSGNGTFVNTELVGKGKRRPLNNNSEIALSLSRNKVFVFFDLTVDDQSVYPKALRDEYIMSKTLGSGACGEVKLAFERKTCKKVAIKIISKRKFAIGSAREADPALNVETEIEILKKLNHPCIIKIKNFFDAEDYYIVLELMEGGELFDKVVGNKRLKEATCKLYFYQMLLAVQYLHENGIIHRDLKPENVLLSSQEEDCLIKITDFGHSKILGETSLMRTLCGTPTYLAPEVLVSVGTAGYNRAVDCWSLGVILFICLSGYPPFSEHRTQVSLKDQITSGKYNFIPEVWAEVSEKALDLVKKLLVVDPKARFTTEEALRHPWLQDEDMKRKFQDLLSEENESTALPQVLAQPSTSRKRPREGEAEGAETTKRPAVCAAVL
T6 sequence (P15056 whole entry V600E): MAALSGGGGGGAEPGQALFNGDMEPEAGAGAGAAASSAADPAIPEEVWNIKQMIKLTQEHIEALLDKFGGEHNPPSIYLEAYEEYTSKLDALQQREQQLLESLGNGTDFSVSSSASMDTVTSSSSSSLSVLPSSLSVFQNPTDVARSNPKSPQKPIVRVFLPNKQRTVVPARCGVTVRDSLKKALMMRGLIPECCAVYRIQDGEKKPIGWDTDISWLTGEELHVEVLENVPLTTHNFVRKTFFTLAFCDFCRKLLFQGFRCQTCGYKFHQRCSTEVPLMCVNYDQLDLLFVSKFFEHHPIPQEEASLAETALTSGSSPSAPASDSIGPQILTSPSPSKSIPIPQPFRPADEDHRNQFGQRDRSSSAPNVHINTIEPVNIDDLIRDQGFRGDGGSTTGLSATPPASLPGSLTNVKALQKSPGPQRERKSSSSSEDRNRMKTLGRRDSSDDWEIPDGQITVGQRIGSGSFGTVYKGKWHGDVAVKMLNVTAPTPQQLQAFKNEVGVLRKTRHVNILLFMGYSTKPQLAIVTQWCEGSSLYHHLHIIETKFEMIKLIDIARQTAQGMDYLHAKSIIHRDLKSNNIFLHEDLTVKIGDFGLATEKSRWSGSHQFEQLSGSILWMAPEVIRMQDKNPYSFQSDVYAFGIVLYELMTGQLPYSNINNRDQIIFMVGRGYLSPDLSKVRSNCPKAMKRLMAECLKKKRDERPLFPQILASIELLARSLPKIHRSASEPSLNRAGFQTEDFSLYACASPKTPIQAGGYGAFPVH

**Q.** For `Cn1cc(-c2ccc3[nH]nc(-c4ccnc(N5CCN(S(C)(=O)=O)CC5)c4)c3c2)cn1` [Example 381], which IC50 [1] is on record?
**A.** The IC50 was 24 nM.

**Q.** And the IC50 [2]?
**A.** Its IC50 is 1.9 nM.

**Q.** And the inhibition at 0.1 µM (kinases (Table B) [3]; test conc 0.100 μM)?
**A.** The inhibition at 0.1 µM was 11%.

**Q.** What about the inhibition at 0.1 µM (kinases (Table B) [4]; test conc 0.100 μM) of the same molecule?
**A.** The inhibition at 0.1 µM was 78%.

**Q.** And the inhibition at 0.1 µM (kinases (Table B) [5]; test conc 0.100 μM)?
**A.** The inhibition at 0.1 µM was 13%.

**Q.** What about the inhibition at 0.1 µM (kinases (Table B) [6]; test conc 0.100 μM) of the same molecule?
**A.** The inhibition at 0.1 µM was 19%.

**Q.** And the inhibition at 0.1 µM (kinases (Table B) [7]; test conc 0.100 μM)?
**A.** The inhibition at 0.1 µM was 11%.

**Q.** What about the “percent inhibition CDK1/cyclin B” value (kinases (Table B) [8]; test conc 0.100 μM) of the same molecule?
**A.** The value was 26%.

**Q.** And the “percent inhibition CLK2” value (kinases (Table B) [8]; test conc 0.100 μM)?
**A.** The value was 91%.

**Q.** And the “percent inhibition IRAK1” value (kinases (Table B) [8]; test conc 0.100 μM)?
**A.** Its value is 20%.

**Q.** What about the “percent inhibition JAK3” value (kinases (Table B) [8]; test conc 0.100 μM) of the same molecule?
**A.** Its value is 4%.

**Q.** What about the inhibition at 0.1 µM (kinases (Table B) [9]; test conc 0.100 μM) of the same molecule?
**A.** Its inhibition at 0.1 µM is 25%.

**Q.** `CC(C)Oc1ccc2[nH]nc(-c3ccnc(N4CCOCC4)c3)c2c1` [Example 400] was tested. Which IC50 [1] did it give?
**A.** The IC50 was 14 nM.

**Q.** And the IC50 [2]?
**A.** The IC50 was 1.9 nM.

**Q.** What about the inhibition at 1 µM (kinases (Table B) [3]) of the same molecule?
**A.** The inhibition at 1 µM was 41%.

**Q.** And the inhibition at 1 µM (kinases (Table B) [4])?
**A.** The inhibition at 1 µM was 9%.

**Q.** What about the inhibition at 1 µM (kinases (Table B) [5]) of the same molecule?
**A.** Its inhibition at 1 µM is 9%.

**Q.** What about the inhibition at 1 µM (kinases (Table B) [6]) of the same molecule?
**A.** The inhibition at 1 µM was 16%.

**Q.** What about the inhibition at 1 µM (kinases (Table B) [7]) of the same molecule?
**A.** The inhibition at 1 µM was 51%.

**Q.** And the “percent inhibition CDK1/cyclin B” value (kinases (Table B) [8]; test conc 1 μM)?
**A.** Its value is 29%.

**Q.** And the “percent inhibition CLK2” value (kinases (Table B) [8]; test conc 1 μM)?
**A.** The value was 47%.

**Q.** What about the “percent inhibition IRAK1” value (kinases (Table B) [8]; test conc 1 μM) of the same molecule?
**A.** The value was 11%.

**Q.** And the “percent inhibition JAK3” value (kinases (Table B) [8]; test conc 1 μM)?
**A.** Its value is 49%.

**Q.** What about the inhibition at 1 µM (kinases (Table B) [9]) of the same molecule?
**A.** The inhibition at 1 µM was 72%.

**Q.** For `CC(C)Oc1ccc2[nH]nc(-c3ccnc(N4CCN(S(C)(=O)=O)CC4)c3)c2c1` [Example 289], which IC50 [1] is on record?
**A.** Its IC50 is 16 nM.

**Q.** And the IC50 [2]?
**A.** The IC50 was 2.7 nM.

**Q.** And the inhibition at 1 µM (kinases (Table B) [3])?
**A.** Its inhibition at 1 µM is 55%.

**Q.** And the inhibition at 1 µM (kinases (Table B) [4])?
**A.** Its inhibition at 1 µM is 12%.

**Q.** What about the inhibition at 1 µM (kinases (Table B) [5]) of the same molecule?
**A.** The inhibition at 1 µM was 23%.

**Q.** And the inhibition at 1 µM (kinases (Table B) [6])?
**A.** The inhibition at 1 µM was 26%.

**Q.** What about the inhibition at 1 µM (kinases (Table B) [7]) of the same molecule?
**A.** The inhibition at 1 µM was 64%.

**Q.** What about the “percent inhibition CDK1/cyclin B” value (kinases (Table B) [8]; test conc 1 μM) of the same molecule?
**A.** The value was 18%.

**Q.** And the “percent inhibition CLK2” value (kinases (Table B) [8]; test conc 1 μM)?
**A.** Its value is 49%.

**Q.** What about the “percent inhibition IRAK1” value (kinases (Table B) [8]; test conc 1 μM) of the same molecule?
**A.** Its value is 6%.

**Q.** What about the “percent inhibition JAK3” value (kinases (Table B) [8]; test conc 1 μM) of the same molecule?
**A.** The value was 29%.

**Q.** What about the inhibition at 1 µM (kinases (Table B) [9]) of the same molecule?
**A.** The inhibition at 1 µM was 54%.

Reference: patent US9440952B2, “Compounds inhibiting leucine-rich repeat kinase enzyme activity” (Merck Sharp & Dohme Corp., priority 2013, dated 2016)
